From US10143681B2, “Factor XIa inhibitors” (MERCK SHARP & DOHME CORP., priority 2016, dated 2018)

Tests used:
human Factor XIa = human Factor XIa (Homo sapiens (Human), UniProt P03951); assay: Factor XIa Assay; format: biochemical; conditions: human Factor XIa 0.04 nM, 30 min pre-incubation at 25° C., substrate GPR-AFC; read-out: FXIa IC50
Summary of the method: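 IC50 values were obtained from four-parameter log(inhibitor)-response fits of % inhibition, then converted to Ki using Cheng-Prusoff. GPR-AFC hydrolysis was read at 400/505 nm after 60 min at 25 °C.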

Human plasma kallikrein = Human plasma kallikrein (Homo sapiens (Human), UniProt P03952); assay: Kallikrein Assay; format: biochemical; conditions: purified Human plasma kallikrein 0.5 nM, substrate Acetyl-K-P-R-AFC; read-out: P. KLK IC50
Sequence of Human plasma kallikrein (P03952 391-638): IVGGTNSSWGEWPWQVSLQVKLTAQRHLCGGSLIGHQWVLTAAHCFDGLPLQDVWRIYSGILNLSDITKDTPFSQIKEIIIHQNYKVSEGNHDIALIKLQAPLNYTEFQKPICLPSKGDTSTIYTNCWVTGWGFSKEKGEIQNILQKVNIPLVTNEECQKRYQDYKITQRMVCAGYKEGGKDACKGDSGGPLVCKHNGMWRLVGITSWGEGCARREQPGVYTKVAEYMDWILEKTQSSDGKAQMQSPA
Sequence of Human plasma kallikrein (P03952 20-390 partner): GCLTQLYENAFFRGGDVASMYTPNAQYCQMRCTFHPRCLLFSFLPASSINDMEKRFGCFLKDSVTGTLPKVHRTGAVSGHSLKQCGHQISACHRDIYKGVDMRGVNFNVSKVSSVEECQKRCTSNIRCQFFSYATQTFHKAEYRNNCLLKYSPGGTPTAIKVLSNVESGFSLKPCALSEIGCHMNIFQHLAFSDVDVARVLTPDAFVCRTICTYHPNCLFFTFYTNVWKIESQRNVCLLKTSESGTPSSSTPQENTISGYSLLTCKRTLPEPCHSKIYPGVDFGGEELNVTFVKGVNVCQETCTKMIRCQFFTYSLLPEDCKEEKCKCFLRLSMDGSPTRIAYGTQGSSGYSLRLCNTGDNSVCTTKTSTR
Description: The effectiveness of a compound of the present invention as an inhibitor of Kallikrein can be determined using a relevant purified serine protease, and an appropriate synthetic substrate. The rate of hydrolysis of the chromogenic or fluorogenic substrate by the relevant serine protease was measured both in the absence and presence of compounds of the present invention. Assays were conducted at room temperature or at 37° C. […] A decrease in the rate of fluorescence change in the presence of inhibitor is indicative of enzyme inhibition. Such methods are known to one skilled in the art. The results of this assay are expressed as the half-maximal inhibitory concentrations (IC50), or the inhibitory constant, Ki.
Kallikrein determinations were made in 50 mM HEPES buffer at pH 7.4 containing 150 mM NaCl, 5 mM CaCl2, and 0.1% PEG 8000 (polyethylene glycol; Fisher Scientific). Determinations were made using purified Human plasma kallikrein at a final concentration of 0.5 nM (Enzyme Research Laboratories) and the synthetic substrate, Acetyl-K-P-R-AFC (Sigma # C6608) at a concentration of […].
Times required to achieve equilibration between enzyme and inhibitor were determined in control experiments. The reactions were performed under linear progress curve conditions and fluorescence increase measured at 405 Ex/510 Em nm. […] IC50 was determined by inflection point from a four parameter logistic curve fit. Ki was calculated using the Cheng Prusoff equation, Ki=IC50/(1+([S]/Km)).

[1] = test system: Human plasma (intrinsic coagulation cascade); assay: Activated Partial Thromboplastin Time (aPTT) Assay; conditions: concentration that causes a 50% (1.5×) increase of clot time over vehicle
Summary of the method: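 Inhibitors spiked into pooled citrated normal-donor human plasma (aPTT 28-40 seconds), run on automated coagulation analyzer: ellagic acid activation of Factor XII, then clot time after recalcification. Reported as concentration giving 50% (1.5×) prolongation over vehicle clot time.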

Sequence of human Factor XIa (P03951 388-625): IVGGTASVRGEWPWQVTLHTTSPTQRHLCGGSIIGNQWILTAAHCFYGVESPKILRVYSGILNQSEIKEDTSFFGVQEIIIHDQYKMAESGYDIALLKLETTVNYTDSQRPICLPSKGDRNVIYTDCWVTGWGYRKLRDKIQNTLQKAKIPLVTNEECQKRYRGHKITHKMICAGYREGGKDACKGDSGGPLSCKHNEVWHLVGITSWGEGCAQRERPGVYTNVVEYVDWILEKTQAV
Sequence of human Factor XIa (P03951 19-387 partner): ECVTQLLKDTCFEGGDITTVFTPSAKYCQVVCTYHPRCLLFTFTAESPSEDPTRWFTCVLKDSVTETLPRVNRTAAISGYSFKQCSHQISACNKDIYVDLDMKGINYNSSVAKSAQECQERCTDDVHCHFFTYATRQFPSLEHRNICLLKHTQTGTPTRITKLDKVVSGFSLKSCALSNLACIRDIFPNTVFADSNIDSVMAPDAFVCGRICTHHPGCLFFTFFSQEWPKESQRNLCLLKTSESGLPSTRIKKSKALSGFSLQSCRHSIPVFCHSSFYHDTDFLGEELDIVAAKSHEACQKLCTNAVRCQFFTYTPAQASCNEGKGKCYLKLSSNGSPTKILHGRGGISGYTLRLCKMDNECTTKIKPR

Row | Compound | IC50 (human Factor XIa) [nM] | IC50 (Human plasma kallikrein) [nM] | aPTT (1.5x) [1] [µM]
1 | O=C(O)c1ccc(NC(=O)C(CC2CC2)c2ccc(-c3cc(Cl)ccc3C(F)(F)F)c[n+]2[O-])cc1 (single isomer, unassigned) [Example 25, (R)- or (S)-2-(1-((4-carboxyphenyl)amino)-3-cyclopropyl-1-oxopropan-2-yl)-5-(5-chloro-2-(trifluoromethyl)phenyl)pyridine 1-oxide] | 16 | 756 | 10.28
2 | O=C(O)c1ccc(NC(=O)C(CC2CC2)c2ccc(-c3c(C(F)(F)F)ccc(Cl)c3F)c[n+]2[O-])cc1 (single isomer, unassigned) [Example 27, (R)- or (S)-2-(1-((4-carboxyphenyl)amino)-3-cyclopropyl-1-oxopropan-2-yl)-5-(3-chloro-2-fluoro-6-(trifluoromethyl)phenyl)pyridine 1-oxide] | 2.8 | 162 | 2.68
3 | O=C(O)c1ccc(NC(=O)C(CC2CCCC2)c2ccc(-c3c(OC(F)F)ccc(Cl)c3F)c[n+]2[O-])cc1 (single isomer, unassigned) [Example 19, (R)- or (S)-4-[(2-{5-[3-chloro-6-(difluoromethoxy)-2-fluorophenyl]-1-oxidopyridin-2-yl}-3-cyclopentylpropanoyl)amino] benzoic acid] | 0.45 | 20 | 1.3
4 | CCOc1ccc(Cl)c(F)c1-c1ccc(C(CC2CC2)C(=O)Nc2ccc(C(=O)O)cc2)[n+]([O-])c1 (single isomer, unassigned) [Example 9, (R)- or (S)-4-({2-[5-(3-chloro-6-ethoxy-2-fluorophenyl)-1-oxidopyridin-2-yl]-3-cyclopropylpropanoyl}amino) benzoic acid] | 9 | 857 | 13
5 | CC1(C)CC1CC(C(=O)Nc1ccc(C(=O)O)cc1)c1ccc(-c2c(OC(F)F)ccc(Cl)c2F)c[n+]1[O-] (single isomer, unassigned) [Example 112, 2-(1-((4-carboxyphenyl)amino)-3-(2,2-dimethylcyclopropyl)-1-oxopropan-2-yl)-5-(3-chloro-6-(difluoromethoxy)-2-fluorophenyl)pyridine 1-oxide] | 0.4 | 21.3 | 2.21
6 | O=C(O)c1ccc(NC(=O)C(CC2CC2)c2ccc(-c3cc(Cl)ccc3OC(F)F)c[n+]2[O-])cc1 (single isomer, unassigned) [Example 7, (R)- or (S)-4-[(2-{5-[5-chloro-2-(difluoromethoxy)phenyl]-1-oxidopyridin-2-yl}-3-cyclopropylpropanoyl)amino] benzoic acid] | 7.6 | 265 | 16.38
7 | O=C(O)c1ccc(NC(=O)C(CC2CCC2)c2ccc(-c3c(OC(F)F)ccc(Cl)c3F)c[n+]2[O-])cc1 (single isomer, unassigned) [Example 15, (R)- or (S)-4-[(2-{5-[3-chloro-6-(difluoromethoxy)-2-fluorophenyl]-1-oxidopyridin-2-yl}-3-cyclobutylpropanoyl)amino] benzoic acid] | 0.56 | 20 | 0.75
8 | N#CC1(CC(C(=O)Nc2ccc(C(=O)O)cc2)c2ccc(-c3c(C(F)(F)F)ccc(Cl)c3F)c[n+]2[O-])CC1 (racemic) [Example 30, 2-(1-((4-carboxyphenyl)amino)-3-(1-cyanocyclopropyl)-1-oxopropan-2-yl)-5-(3-chloro-2-fluoro-6-(trifluoromethyl)phenyl)pyridine 1-oxide] | 7.6 | 155 | 5.27
9 | CC1CC1C[C@@H](C(=O)Nc1ccc(C(=O)O)cc1)c1ccc(-c2c(C(F)(F)F)ccc(Cl)c2F)c[n+]1[O-] (single isomer, unassigned) [Example 65] | – | 51 | 1.86
10 | O=C(O)c1ccc(NC(=O)C(CC2CC2)c2ccc(-c3c(OC(F)F)ccc(Cl)c3F)c[n+]2[O-])cc1F (single isomer, unassigned) [Example 73] | – | 88 | 2.15
11 | O=C(O)c1ccc(NC(=O)C(CC2CCC(F)(F)CC2)c2ccc(-c3c(OC(F)F)ccc(Cl)c3F)c[n+]2[O-])cc1 (single isomer, unassigned) [Example 39] | – | 25 | 1.30
12 | CC1C(C)C1CC(C(=O)Nc1ccc(C(=O)O)cc1)c1ccc(-c2c(OC(F)F)ccc(Cl)c2F)c[n+]1[O-] (single isomer, unassigned) [Example 99, 2-(1-((4-carboxyphenyl)amino)-3-(2,3-dimethylcyclopropyl)-1-oxopropan-2-yl)-5-(3-chloro-6-(difluoromethoxy)-2-fluorophenyl)pyridine 1-oxide] | – | 92 | 2.78

Continued, in another order:

Row | IC50 (human Factor XIa) [nM] | IC50 (Human plasma kallikrein) [nM] | Compound | aPTT (1.5x) [1] [µM]
13 | 0.21 | 6.1 | CC1CC1C[C@@H](C(=O)Nc1ccc(C(=O)O)cc1)c1ccc(-c2c(C(F)F)ccc(Cl)c2F)c[n+]1[O-] (single isomer, unassigned) [Example 62] | 0.35
14 | 2.7 | 12 | C[C@]1(O)CC[C@@H](CC(C(=O)Nc2ccc(C(=O)O)cc2)c2ccc(-c3c(C(F)F)ccc(Cl)c3F)c[n+]2[O-])CC1 (single isomer, unassigned) [Example 45, 2-(1-((4-carboxyphenyl)amino)-3-((1s,4s)-4-hydroxy-4-methylcyclohexyl)-1-oxopropan-2-yl)-5-(3-chloro-6-(difluoromethyl)-2-fluorophenyl)pyridine 1-oxide] | 1.16
15 | 0.33 | 5.7 | O=C(O)c1ccc(NC(=O)C(C[C@H]2CC[C@H](O)CC2)c2ccc(-c3c(C(F)F)ccc(Cl)c3F)c[n+]2[O-])cc1 (single isomer, unassigned) [Example 37, (R)- or (S)-2-(1-((4-carboxyphenyl)amino)-3-((1r,4r)-4-hydroxycyclohexyl)-1-oxopropan-2-yl)-5-(3-chloro-6-(difluoromethyl)-2-fluorophenyl)pyridine 1-oxide] | 0.4
16 | 0.56 | 20 | C[C@]1(O)CC[C@H](CC(C(=O)Nc2ccc(C(=O)O)cc2)c2ccc(-c3c(C(F)F)ccc(Cl)c3F)c[n+]2[O-])CC1 (single isomer, unassigned) [Example 47, 2-(1-((4-carboxyphenyl)amino)-3-((1r,4r)-4-hydroxy-4-methylcyclohexyl)-1-oxopropan-2-yl)-5-(3-chloro-6-(difluoromethyl)-2-fluorophenyl)pyridine 1-oxide] | 0.59
17 | 1.2 | 8.4 | O=C(O)c1ccc(NC(=O)C(CC2CC(F)C2)c2ccc(-c3c(C(F)F)ccc(Cl)c3F)c[n+]2[O-])cc1 (single isomer, unassigned) [Example 81, 2-(1-((4-carboxyphenyl)amino)-3-(3-fluorocyclobutyl)-1-oxopropan-2-yl)-5-(3-chloro-6-(difluoromethyl)-2-fluorophenyl)pyridine-1-oxide] | 0.58
18 | – | 3.6 | O=C(O)c1ccc(NC(=O)C(CC2CC2C(F)(F)F)c2ccc(-c3c(C(F)F)ccc(Cl)c3F)c[n+]2[O-])cc1 (single isomer, unassigned) [Example 88, 2-(1-((4-carboxyphenyl)amino)-1-oxo-3-(2-(trifluoromethyl)cyclo-propyl)propan-2-yl)-5-(3-chloro-6-(difluoromethyl)-2-fluorophenyl)pyridine 1-oxide] | 1.43
19 | – | 14.6 | O=C(O)c1ccc(NC(=O)C(CC2CC2)c2ccc(-c3c(C(F)F)ccc(Cl)c3F)c[n+]2[O-])cc1F (single isomer, unassigned) [Example 118, 2-(1-((4-carboxy-3-fluorophenyl)amino)-3-cyclopropyl-1-oxopropan-2-yl)-5-(3-chloro-6-(difluoromethyl)-2-fluorophenyl)pyridine 1-oxide] | 0.66
20 | – | 4.7 | O=C(O)c1ccc(NC(=O)C(CC23CC(C2)C3)c2ccc(-c3c(C(F)F)ccc(Cl)c3F)c[n+]2[O-])cc1F (single isomer, unassigned) [Example 124, 2-(3-(bicyclo[1.1.1]pentan-1-yl)-1-((4-carboxy-3-fluorophenyl)amino)-1-oxopropan-2-yl)-5-(3-chloro-6-(difluoromethyl)-2-fluorophenyl)pyridine 1-oxide] | 1.76
